Results on 13 molecules are retold here after patent US12564638B2 (SHANGHAITECH UNIVERSITY, priority 2019, dated 2026).

Read-outs that look alike come from different tables or passages of the source.

What all share (format): cell-based
Test [1] deals with PC9 cells (EGFR Exon 19 del, non-small cell lung cancer cells). The test can be described thus: Cell viability assay (WST/CCK8), PC9 cells. To be noted: Homo sapiens, read-out: IC50 (half inhibitory concentration). An outline of the steps: (§1)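 Cells seeded at 3 000/well in RPMI1640 complete medium, dosed next day with compounds (top 10 μM, 3-fold, 10 points) for 72 h. Viability read with WST (CCK8) reagent; DMSO as negative control, EGFR TKIs as positive controls; IC50 determined.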

Test [2] concerns PC9BracA1 (EGFR Exon 19 del+T790M, non-small cell lung cancer cells). The test can be described thus: Cell viability assay (WST/CCK8), PC9Brac1 cells. As to conditions: read-out: IC50 (half inhibitory concentration). From the text:
(§2) The cell lines with abnormal EGFR expression used are as follows: • HCC827 cells (EGFR Exon19 del, non-small cell lung cancer cells); • PC9 cells (EGFR Exon 19 del, non-small cell lung cancer cells); • PC9BracA1 (EGFR Exon 19 del+T790M, non-small cell lung cancer cells) • H1975 (EGFR Exon T790M+L858R mutation, non-small cell lung cancer cell line) • BT474 cells (HER2 positive breast cancer cells)
(§3) All of the half inhibitory concentrations (IC50) of these compounds of the present invention were determined with WST reagent from Fuyuan Biotec Company. The specific experiment procedures are as follows: Cancer cells were planted in 96-well-plate at the density of 3 000 cells per well with 100 μL RPMI1640 completed culture medium. In the next day, compounds with indicated concentrations were added to the cells, DMSO was used as the negative control and the EGFR TKIs were used to treat cells as the positive groups. After 72 hours drug treatment, cell viability was measured by using the WST reagent following the instructions.

In test [3] the test system is H1975 (EGFR T790M+L858R mutation, non-small cell lung cancer cell line). The test can be described thus: Cell viability assay (WST/CCK8), H1975 cells. To be noted: Homo sapiens, read-out: IC50 (half inhibitory concentration).
Source text: as §2, §3

The test system of test [4] is HCC827 cells (EGFR Exon19 del, non-small cell lung cancer cells). The test can be described thus: Cell viability assay (WST/CCK8), HCC827 cells. To be noted: Homo sapiens, HCC827, 72 h, read-out: IC50 (half inhibitory concentration). An outline of the steps:
as §1

Test [5] concerns BT474 cells (HER2 positive breast cancer cells). Description: Cell viability assay (CCK8), BT474 cells. As to conditions: Homo sapiens, BT-474, Table 10, BT474, 72 hours, read-out: IC50 (half inhibitory concentration).
Source text: as §2
as §3, with “instructions. The growth inhibition curve of the compounds on cells were plotted by Prism GraphPad, and the compounds IC50 calculated from it.” for “instructions.”
The cell viability assays were taken to determine the anti-tumor activity of these indicated compounds in BT474 cells, which can overexpress HER2 protein. The cells were treated with the gradient concentration of these compounds (the maximum concentration: 10 μM; 3-fold dilution ratio, 10 concentration gradients) for 72 hours and then incubated with the CCK8 reagent to determine the cell viability.

Where [6] appears, read: PC-9, Table 8, osimertinib-based compounds, PC9, 72 hours, WST.
[7] abbreviates: Table 8, osimertinib-based compounds, Pc9Brc1, 72 hours, WST.
Setting [8] is: NCI-H1975, Table 8, osimertinib-based compounds, H1975, 72 hours, WST.
Setting [9] is: Table 8, osimertinib-based compounds, HCC827, 72 hours, WST.
Where [10] appears, read: PC-9, PC9 (Exon19 Del), 72 hours, WST (CCK8).
Setting [11] is: PC9Brac1 (Ex19del + T790M), 72 hours, WST.
[12] abbreviates: HCC827 (Exon19 Del), 72 hours, WST (CCK8).

On to `C=CC(=O)Nc1cc(Nc2nccc(-c3cn(C)c4ccccc34)n2)c(OC)cc1N(C)CCN(C)CCCCCCCC#Cc1cccc2c1CN(C1CCC(=O)NC1=O)C2=O` (centres unmarked), for which the IC50 in test [1] (setting [6]) amounted to 161 nM; in test [2] (setting [7]) it was 413 nM; in test [3] (setting [8]), 117 nM; in test [4] (setting [9]), 9 nM.
`C=CC(=O)Nc1cc(Nc2nccc(-c3cn(C)c4ccccc34)n2)c(OC)cc1N(C)CCN(C)C` [Osimertinib, reference compound]: the IC50 came to 4 nM in test [1] (PC-9, 72 h); 354 nM in test [2] (72 h); 2 nM in test [3] (NCI-H1975, 72 h); 0.36 nM in test [4].
Take `COc1cc2ncnc(Nc3ccc(F)c(Cl)c3)c2cc1NC(=O)/C=C/CN1CCC(NC(=O)CCCNc2cccc3c2C(=O)N(C2CCC(=O)NC2=O)C3=O)CC1` (centres unmarked) [SIAIS249083, (E)-N-(4-((3-chloro-4-fluorophenyl)amino)-7-methoxyquinazolin-6-yl)-4-(4-(4-((2-(2,6-dioxopiperidin-3-yl)-1,3-dioxoisoindolin-4-yl)amino)butanamido)piperidin-1-yl)but-2-enamide]: the IC50 in test [5] was found to be 64.9 nM; in test [1] (setting [10]), 2.9 nM; in test [2] (setting [11]), 435 nM; in test [4] (setting [12]), 5 nM.
For the molecule `COc1cc2ncnc(Nc3ccc(F)c(Cl)c3)c2cc1NC(=O)/C=C/CN1CCC(NC(=O)CCCCCNc2cccc3c2C(=O)N(C2CCC(=O)NC2=O)C3=O)CC1` (centres unmarked) [SIAIS249084, (E)-N-(1-(4-((4-((3-chloro-4-fluorophenyl)amino)-7-methoxyquinazolin-6-yl)amino)-4-oxobut-2-en-1-yl)piperidin-4-yl)-6-((2-(2,6-dioxopiperidin-3-yl)-1,3-dioxoisoindolin-4-yl)amino)hexanamide], the IC50 in test [5] stood at 6.08 nM; in test [1] (setting [10]), 0.6 nM; in test [2] (setting [11]), 434 nM; in test [4] (setting [12]), 3 nM.
For `COc1cc2ncnc(Nc3ccc(F)c(Cl)c3)c2cc1NC(=O)/C=C/CN1CCC(N2CCNCC2)CC1` [SIAIS262021, (E)-N-(4-((3-chloro-4-fluorophenyl)amino)-7-methoxyquinazolin-6-yl)-4-(4-(piperazin-1-yl)piperidin-1-yl)but-2-enamide], the figures for the IC50 in test [5] and in test [2] (setting [11]) were 32.6 nM and 954 nM, respectively.
As for `C=CC(=O)Nc1cc2c(Nc3ccc(F)c(Cl)c3)ncnc2cc1OCCCN1CCN(C(=O)CCOCCOCCNc2cccc3c2C(=O)N(C2CCC(=O)NC2=O)C3=O)CC1` (centres unmarked) [SIAIS262127, N-(4-((3-chloro-4-fluorophenyl)amino)-7-(3-(4-(3-(2-(2-((2-(2,6-dioxopiperidin-3-yl)-1,3-dioxoisoindolin-4-yl)amino)ethoxy)ethoxy)propanoyl)piperazin-1-yl)propoxy)quinazolin-6-yl)acrylamide], the IC50 in test [1] (PC-9, Table 6, canertinib-based compounds, PC9 (Exon19 Del), 72 hours, WST) was determined as 9.7 nM; in test [2] (Table 7, canertinib-based compounds, PC9Brca1 (Ex19del + T790M)) it was 423 nM; in test [3] (NCI-H1975, Table 7, canertinib-based compounds, H1975 (L858R + T790M)) it was 468 nM; in test [4] (Table 6, canertinib-based compounds, HCC827 (Exon19 Del), 72 hours, WST), 6.4 nM.
On to `C=CC(=O)Nc1cc(Nc2nccc(-c3cn(C)c4ccccc34)n2)c(OC)cc1N(C)CCNC` [SIAIS337051, N-(4-methoxy-2-(methyl(2-(methylamino)ethyl)amino)-5-((4-(1-methyl-1H-indol-3-yl)pyrimidin-2-yl)amino)phenyl)acrylamide], for which the IC50 in test [1] (setting [6]) came out at 2 nM; in test [2] (setting [7]) it was 479 nM; in test [3] (setting [8]), 1 nM; in test [4] (setting [9]), 1 nM.
Regarding `C=CC(=O)Nc1cc(Nc2nccc(-c3cn(C)c4ccccc34)n2)c(OC)cc1N(C)CCN(C)C(=O)COCCSc1cccc2c1CN(C1CCC(=O)NC1=O)C2=O` (centres unmarked) [SIAIS337074, N-(2-((2-(2-(2-((2-(2,6-dioxopiperidin-3-yl)-1-oxoisoindolin-4-yl)thio)ethoxy)-N-methylacetamido)ethyl)(methyl)amino)-4-methoxy-5-((4-(1-methyl-1H-indol-3-yl)pyrimidin-2-yl)amino)phenyl)acrylamide], the IC50 turned out to be 91 nM in test [1] (setting [6]), 238 nM in test [2] (setting [7]), 145 nM in test [3] (setting [8]) and 3 nM in test [4] (setting [9]).
Take `C=CC(=O)Nc1cc(Nc2nccc(-c3cn(C)c4ccccc34)n2)c(OC)cc1N(C)CCN(C)C(=O)COCCOCCOCCSc1cccc2c1CN(C1CCC(=O)NC1=O)C2=O` (centres unmarked) [SIAIS337076, N-(2-((14-((2-(2,6-dioxopiperidin-3-yl)-1-oxoisoindolin-4-yl)thio)-3-methyl-4-oxo-6,9,12-trioxa-3-azatetradecyl)(methyl)amino)-4-methoxy-5-((4-(1-methyl-1H-indol-3-yl)pyrimidin-2-yl)amino)phenyl)acrylamide]: the IC50 was determined as 459 nM in test [1] (setting [6]), 303 nM in test [2] (setting [7]), 187 nM in test [3] (setting [8]) and 10 nM in test [4] (setting [9]).
Regarding `C=CC(=O)Nc1cc(Nc2nccc(-c3cn(C)c4ccccc34)n2)c(OC)cc1N(C)CCN(C)CCCSc1cccc2c1CN(C1CCC(=O)NC1=O)C2=O` (centres unmarked) [SIAIS337079, N-(2-((2-((3-((2-(2,6-dioxopiperidin-3-yl)-1-oxoisoindolin-4-yl)thio)propyl)(methyl)amino)ethyl)(methyl)amino)-4-methoxy-5-((4-(1-methyl-1H-indol-3-yl)pyrimidin-2-yl)amino)phenyl)acrylamide], the IC50 worked out at 373 nM in test [1] (setting [6]), 366 nM in test [2] (setting [7]), 70 nM in test [3] (setting [8]) and 879 nM in test [4] (setting [9]).
Take `C=CC(=O)Nc1cc(Nc2nccc(-c3cn(C)c4ccccc34)n2)c(OC)cc1N(C)CCN(C)CCCCCSc1cccc2c1CN(C1CCC(=O)NC1=O)C2=O` (centres unmarked) [SIAIS337081, N-(2-((2-((5-((2-(2,6-dioxopiperidin-3-yl)-1-oxoisoindolin-4-yl)thio)pentyl)(methyl)amino)ethyl)(methyl)amino)-4-methoxy-5-((4-(1-methyl-1H-indol-3-yl)pyrimidin-2-yl)amino)phenyl)acrylamide]: the IC50 in test [1] (setting [6]) was 134 nM; in test [2] (setting [7]), 207 nM; in test [3] (setting [8]), 18 nM; in test [4] (setting [9]), 184 nM.
Consider `C=CC(=O)Nc1cc(Nc2nccc(-c3cn(C)c4ccccc34)n2)c(OC)cc1N(C)CCN(C)CCCCCCSc1cccc2c1CN(C1CCC(=O)NC1=O)C2=O` (centres unmarked) [SIAIS337082, N-(2-((2-((6-((2-(2,6-dioxopiperidin-3-yl)-1-oxoisoindolin-4-yl)thio)hexyl)(methyl)amino)ethyl)(methyl)amino)-4-methoxy-5-((4-(1-methyl-1H-indol-3-yl)pyrimidin-2-yl)amino)phenyl)acrylamide], for which the IC50 in test [1] (setting [6]) stood at 89 nM; in test [2] (setting [7]), 218 nM; in test [3] (setting [8]), 55 nM; in test [4] (setting [9]) it was 8 nM.
With `C=CC(=O)Nc1cc(Nc2nccc(-c3cn(C)c4ccccc34)n2)c(OC)cc1N(C)CCN(C)CCCCCCCSc1cccc2c1CN(C1CCC(=O)NC1=O)C2=O` (centres unmarked) [SIAIS337083, N-(2-((2-((7-((2-(2,6-dioxopiperidin-3-yl)-1-oxoisoindolin-4-yl)thio)heptyl)(methyl)amino)ethyl)(methyl)amino)-4-methoxy-5-((4-(1-methyl-1H-indol-3-yl)pyrimidin-2-yl)amino)phenyl)acrylamide], the IC50 amounted to 512 nM in test [1] (setting [6]), 676 nM in test [2] (setting [7]), 494 nM in test [3] (setting [8]) and 46 nM in test [4] (setting [9]).
